This note sets out measurements from patent US12433901B2, “Compounds and methods for prevention and treatment of coronavirus infections” (ARJIL BIOTECH HOLDING COMPANY LIMITED, priority 2020, dated 2025).

The assay addresses SARS-CoV-2 3CLpro (Severe acute respiratory syndrome coronavirus 2, UniProt P0DTD1). Description: ED-FRET protease assay with SARS-CoV-2 3CLpro (DABCYL-[…]-EDANS IQF peptide substrate). The note with it: for inhibitory effect on peptide-cleaving activity of SARS-CoV-2 3CLpro (in words): compound 20 μM, FIG. 1; for IC50: IC50, relative 3CLpro activity. The class given is biochemical.

Setting [1] is: 0.125 μM SARS-CoV-2 3CLpro and 1.25 μM IQF peptide substrate (0.125p/1.25FP).

Where “and” joins values, the source holds several entries; their conditions need not be identical. Equal entries are not always repeated.

In the case of `C=C(CC[C@@H](C)[C@H]1CC[C@H]2C3=C(C(=O)C[C@]12C)[C@@]1(C)CC[C@@H](O)[C@](C)(O)[C@@H]1C[C@@H]3O)[C@@H](C)C(=O)O` (stereo in doubt) [AR101 DS1], the “inhibitory effect on peptide-cleaving activity of SARS-CoV-2 3CLpro (in words)” value (“inhibitory effect … (in words)” for short) was “inhibitory effect”.

A word on the IC50: it is the concentration that inhibits the measured activity by half. The low end stands for higher potency, the high end for lower potency. With `C=C1C(=O)O[C@H]2/C=C(\C)CC3C=C(CC/C=C(\C)CC[C@H]12)C(=O)O3` (stereo partly drawn) [AR100 DS1], the “inhibitory effect … (in words)” value is on record as “inhibitory effect”. Half-maximal inhibition under setting [1] (IC50) required 21.3 µM.

For orientation: inhibition means the percentage by which the read-out fell short of the control. Regarding `C=C(CC[C@@H](C(=O)O)[C@H]1C[C@H](OC(C)=O)[C@@]2(C)C3=C(CC[C@]12C)[C@@]1(C)CC[C@H](O)C(C)(C)[C@@H]1CC3)C(C)C` [AR101 DS3], the “inhibitory effect … (in words)” value is on record as “utmost inhibitory effect”. This compound showed an IC50 under setting [1] of 11.7 µM. For the same compound, the IC50 (0.25 μM SARS-CoV-2 3CLpro and 2.5 μM IQF peptide substrate) was 11.1 µM. The 50% inhibitory concentration (IC50) (0.5 μM SARS-CoV-2 3CLpro and 5 μM IQF peptide substrate (0.5p/5FP)) is 14.6 µM and 11.1 µM. Besides, under “read-out: SARS-CoV-2 3CLpro inhibition”, the inhibition at 20 µM was around 50%.

On to `C=C(CC[C@@H](C(=O)O)[C@H]1CC[C@@]2(C)C3=CC[C@H]4C(C)(C)[C@@H](O)CC[C@]4(C)C3=CC[C@]12C)C(C)C` [AR101 DS4], for which the “inhibitory effect … (in words)” value was “inhibitory effect”.
